Here are results for 13 compounds from ChEMBL document CHEMBL1201862, “PubChem BioAssay data set” (2004).

Activity calls are given as the source filed them.

The target in assay [1] is T1, Hexokinase HKDC1 (Homo sapiens, UniProt Q2TB90).
T1 sequence (Q2TB90 whole entry): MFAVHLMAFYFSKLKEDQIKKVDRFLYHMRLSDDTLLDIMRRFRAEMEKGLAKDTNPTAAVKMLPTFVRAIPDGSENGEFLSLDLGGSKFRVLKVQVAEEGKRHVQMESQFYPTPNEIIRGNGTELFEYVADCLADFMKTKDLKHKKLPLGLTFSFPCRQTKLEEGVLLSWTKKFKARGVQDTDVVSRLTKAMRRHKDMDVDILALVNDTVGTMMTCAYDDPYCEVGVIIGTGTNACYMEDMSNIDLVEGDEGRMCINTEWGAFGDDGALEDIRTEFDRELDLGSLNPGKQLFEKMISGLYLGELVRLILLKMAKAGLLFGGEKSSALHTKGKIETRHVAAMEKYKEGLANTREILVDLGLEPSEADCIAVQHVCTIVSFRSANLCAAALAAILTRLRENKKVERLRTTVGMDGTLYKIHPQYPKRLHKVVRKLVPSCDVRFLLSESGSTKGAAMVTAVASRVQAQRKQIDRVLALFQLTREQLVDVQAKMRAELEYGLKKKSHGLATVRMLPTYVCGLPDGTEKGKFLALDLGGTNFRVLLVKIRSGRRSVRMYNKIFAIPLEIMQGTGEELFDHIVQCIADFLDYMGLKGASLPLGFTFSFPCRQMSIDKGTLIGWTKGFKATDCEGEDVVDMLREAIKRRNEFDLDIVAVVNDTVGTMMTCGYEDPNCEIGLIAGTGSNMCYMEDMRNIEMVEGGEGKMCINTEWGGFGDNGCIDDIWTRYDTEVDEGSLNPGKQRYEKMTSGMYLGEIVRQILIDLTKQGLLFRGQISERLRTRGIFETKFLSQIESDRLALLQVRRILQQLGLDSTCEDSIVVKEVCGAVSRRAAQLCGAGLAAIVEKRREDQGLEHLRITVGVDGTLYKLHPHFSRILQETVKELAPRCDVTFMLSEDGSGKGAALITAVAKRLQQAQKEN
Nature of the assay: HKDC1 hexokinase inhibitors, dose response, biochemical, W721R variant (AID 504729). Format: functional.

The subject of assay [2] is Streptococcus sp. 'group A'. The assay can be described thus: growth inhibition of control SK(-) GAS strain, dose response, counter-screen for streptokinase expression inhibitor project, luminescence, kanamycin, BacTiterGlo, confirmation (AID 1900). Format: functional, organism-based. In general terms: The purpose of a counterscreen is to sort out artefacts and off-target activity.

In assay [3] the test system is Streptococcus. Nature of the assay: Group A Streptococcus viability loss, dose response, counter-screen for streptokinase expression inhibitor project, luminescence, BacTiterGlo (AID 1915).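 Also: potency for reduction of bacterial viability or growth.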 Type of assay: functional, organism-based.
Assay [4] has as its target Large T antigen (Simian virus 40, UniProt P03070). Format: functional, Betapolyomavirus macacae.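 Also: Confirmatory-stage PubChem screen for compounds that inhibit SV40 T antigen.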
Assay [5] has as its target Trypsin (Sus scrofa, UniProt P00761). The assay can be described thus: porcine trypsin inhibitors, dose response, selectivity assay for Rce1 protease inhibitor project, biochemical, quenched peptide fluorescence, cherry-pick (AID 488789).
For assay [6], the target named is CAAX prenyl protease 2 (Saccharomyces cerevisiae S288c, UniProt Q03530). Type of assay: biochemical.
Assay [7] in a line: HEp-2 cell cytotoxicity, dose response, cytotoxicity control for RSV inhibitor project, HTS (AID 2410). Type of assay: functional. Particulars: human respiratory syncytial virus.
Assay [8] deals with T2, Runt-related transcription factor 1/Core-binding factor subunit beta (Homo sapiens, UniProt Q01196+Q13951). The assay can be described thus: inhibitors of RUNX1 Runt–CBFb-SMMHC binding, primary screen, biochemical, FRET, Cerulean-Runt, Venus-CBFb-SMMHC, uHTS (AID 1434).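 Also: partner is the CBFb-SMMHC leukemia fusion protein rather than wild-type CBFb.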 Format: protein assay.
The target of assay [9] is T2, Runt-related transcription factor 1/Core-binding factor subunit beta. Nature of the assay: inhibitors of RUNX1 Runt–CBFb-SMMHC binding, biochemical, TR-FRET (AID 1438). Type of assay: protein assay.
The target in assay [10] is Cytochrome P450 2C9 (Homo sapiens, UniProt P11712). Particulars: Potency.
The target of assay [11] is Cytochrome P450 2D6 (Homo sapiens, UniProt P10635). Nature of the assay: qHTS Assay for Inhibitors and Substrates of Cytochrome P450 2D6. [Related pubchem assays: 410 ]. Format: ADME. Particulars: read-out: Potency.
The target in assay [12] is Hexokinase (Trypanosoma brucei, UniProt Q38C41). Nature of the assay: Confirmation assay for inhibitors of Trypanosoma brucei hexokinase 1-Analogue-first series. [Related pubchem assays (depositor defined):AID1430, AID1632, AID2516, AID2560, AID2579, AID2600, AID449725, AID492951]. Type of assay: functional.
Assay [13] concerns the target Glucose-6-phosphate 1-dehydrogenase (Homo sapiens, UniProt P11413). The assay can be described thus: human G6PD enzyme inhibitors, dose response, selectivity assay for P. falciparum G6PD inhibitor project, biochemical, fluorescence (AID 504792). Type of assay: functional.
In assay [14] the target is T3, Mitochondrial peptide methionine sulfoxide reductase (Bos taurus, UniProt P54149).
T3 sequence (P54149 whole entry): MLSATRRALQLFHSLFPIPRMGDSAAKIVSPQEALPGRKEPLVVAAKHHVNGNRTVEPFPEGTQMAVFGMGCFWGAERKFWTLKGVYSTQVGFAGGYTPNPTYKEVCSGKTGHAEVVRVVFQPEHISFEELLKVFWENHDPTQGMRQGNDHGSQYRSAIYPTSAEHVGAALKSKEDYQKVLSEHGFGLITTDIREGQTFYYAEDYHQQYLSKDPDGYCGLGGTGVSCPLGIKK
Nature of the assay: Absorbance-based biochemical high throughput dose response assay for activators of Methionine sulfoxide reductase A (MsrA). Format: functional.

In assay [15] the target is Alkaline phosphatase, placental type (Homo sapiens, UniProt P05187). The assay can be described thus: PLAP enzyme inhibitors, confirmation, biochemical, luminescence (AID 1512). Format: functional.
In assay [16] the target is T4, Alkaline phosphatase, tissue-nonspecific isozyme (Homo sapiens, UniProt P05186).
T4 sequence (P05186 whole entry): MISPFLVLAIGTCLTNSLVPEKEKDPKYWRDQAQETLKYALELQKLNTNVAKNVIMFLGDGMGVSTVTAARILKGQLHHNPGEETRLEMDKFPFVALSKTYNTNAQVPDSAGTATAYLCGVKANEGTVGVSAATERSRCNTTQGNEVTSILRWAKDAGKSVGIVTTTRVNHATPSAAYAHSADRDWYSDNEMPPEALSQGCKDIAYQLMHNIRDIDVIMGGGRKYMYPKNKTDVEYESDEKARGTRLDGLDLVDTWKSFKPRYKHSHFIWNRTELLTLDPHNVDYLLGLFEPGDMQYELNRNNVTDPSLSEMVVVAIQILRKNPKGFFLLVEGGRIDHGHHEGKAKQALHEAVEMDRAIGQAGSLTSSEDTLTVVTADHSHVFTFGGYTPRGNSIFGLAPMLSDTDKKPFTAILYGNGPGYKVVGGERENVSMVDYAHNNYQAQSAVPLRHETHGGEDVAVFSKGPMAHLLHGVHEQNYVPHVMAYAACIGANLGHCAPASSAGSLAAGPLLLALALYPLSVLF
The assay can be described thus: human TNAP enzyme inhibitors, SAR follow-up, biochemical, luminescent, dose response (AID 1056).

Assay [17] addresses X-box-binding protein 1 (Homo sapiens, UniProt P17861). Type of assay: functional, Cricetulus griseus.
In assay [18] the target is T5, Corticotropin-releasing factor receptor 2/Corticotropin-releasing factor-binding protein (Homo sapiens, UniProt P24387+Q13324).
T5 sequence (Q13324 whole entry): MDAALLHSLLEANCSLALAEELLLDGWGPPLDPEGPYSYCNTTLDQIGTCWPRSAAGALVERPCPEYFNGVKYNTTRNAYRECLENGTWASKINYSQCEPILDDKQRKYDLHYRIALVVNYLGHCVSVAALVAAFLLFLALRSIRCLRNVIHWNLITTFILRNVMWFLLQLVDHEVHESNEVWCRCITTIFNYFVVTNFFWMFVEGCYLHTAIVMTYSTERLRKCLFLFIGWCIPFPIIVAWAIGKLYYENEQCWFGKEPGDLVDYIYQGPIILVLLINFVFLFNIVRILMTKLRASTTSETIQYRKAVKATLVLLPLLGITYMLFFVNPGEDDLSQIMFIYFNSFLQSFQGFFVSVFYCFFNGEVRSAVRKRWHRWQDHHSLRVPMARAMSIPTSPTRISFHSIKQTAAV
T5 sequence (P24387 whole entry): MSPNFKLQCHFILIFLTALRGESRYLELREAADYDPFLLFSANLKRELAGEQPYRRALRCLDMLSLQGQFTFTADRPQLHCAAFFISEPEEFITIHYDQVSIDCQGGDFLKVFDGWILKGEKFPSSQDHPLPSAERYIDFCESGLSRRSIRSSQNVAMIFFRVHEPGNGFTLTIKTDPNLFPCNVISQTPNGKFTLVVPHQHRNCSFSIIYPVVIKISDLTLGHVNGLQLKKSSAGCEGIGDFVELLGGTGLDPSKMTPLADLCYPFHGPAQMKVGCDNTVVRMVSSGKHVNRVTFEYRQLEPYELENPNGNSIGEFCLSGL
The assay can be described thus: activators of CRF receptor 2 with binding protein – uHTS hits, confirmation (AID 602473). Format: functional. Particulars: read-out: EC50_Mean.

Assay [19] is described as follows: A cytotoxicity screen of small molecule inhibitors of the PhoP region in Salmonella typhi identified in the primary screen. [Related pubchem assays: 1850, 1864, 1985 ]. Format: functional.
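For Absolute IC50 (XBP1) in this document: confirmatory dose-response counter-screen serving a CHOP assay.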

T2 sequence (Q01196 whole entry, the tested form may be a part): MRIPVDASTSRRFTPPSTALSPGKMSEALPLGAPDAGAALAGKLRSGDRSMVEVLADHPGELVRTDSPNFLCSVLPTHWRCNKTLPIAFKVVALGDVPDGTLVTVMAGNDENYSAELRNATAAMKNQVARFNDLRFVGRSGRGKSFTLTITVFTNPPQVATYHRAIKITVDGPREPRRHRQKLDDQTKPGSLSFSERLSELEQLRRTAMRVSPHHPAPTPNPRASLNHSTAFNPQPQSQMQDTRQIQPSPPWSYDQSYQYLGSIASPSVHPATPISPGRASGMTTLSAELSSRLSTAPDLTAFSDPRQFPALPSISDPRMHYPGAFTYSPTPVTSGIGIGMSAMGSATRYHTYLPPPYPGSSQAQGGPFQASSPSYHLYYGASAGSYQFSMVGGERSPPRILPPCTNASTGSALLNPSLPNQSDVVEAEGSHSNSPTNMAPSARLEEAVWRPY
T2 sequence (Q13951 whole entry, the tested form may be a part): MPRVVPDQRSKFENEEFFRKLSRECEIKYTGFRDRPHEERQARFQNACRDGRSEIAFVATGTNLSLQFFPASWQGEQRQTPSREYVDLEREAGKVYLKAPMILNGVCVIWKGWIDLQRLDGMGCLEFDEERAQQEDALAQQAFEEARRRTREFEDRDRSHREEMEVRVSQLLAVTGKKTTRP
Cytochrome P450 2C9, sequence (P11712 whole entry): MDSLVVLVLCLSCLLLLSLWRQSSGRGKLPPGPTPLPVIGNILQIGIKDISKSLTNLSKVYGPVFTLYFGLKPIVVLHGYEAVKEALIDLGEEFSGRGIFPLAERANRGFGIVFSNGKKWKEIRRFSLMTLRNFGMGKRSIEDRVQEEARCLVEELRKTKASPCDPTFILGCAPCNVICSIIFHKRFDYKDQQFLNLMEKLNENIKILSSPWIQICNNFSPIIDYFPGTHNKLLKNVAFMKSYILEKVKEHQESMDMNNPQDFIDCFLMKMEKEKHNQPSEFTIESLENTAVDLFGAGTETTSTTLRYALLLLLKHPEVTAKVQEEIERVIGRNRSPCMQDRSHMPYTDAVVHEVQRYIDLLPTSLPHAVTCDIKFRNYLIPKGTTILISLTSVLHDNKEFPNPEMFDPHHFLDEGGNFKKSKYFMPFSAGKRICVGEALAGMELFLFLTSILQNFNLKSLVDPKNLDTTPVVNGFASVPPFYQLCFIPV
Alkaline phosphatase, placental type, sequence (P05187 whole entry): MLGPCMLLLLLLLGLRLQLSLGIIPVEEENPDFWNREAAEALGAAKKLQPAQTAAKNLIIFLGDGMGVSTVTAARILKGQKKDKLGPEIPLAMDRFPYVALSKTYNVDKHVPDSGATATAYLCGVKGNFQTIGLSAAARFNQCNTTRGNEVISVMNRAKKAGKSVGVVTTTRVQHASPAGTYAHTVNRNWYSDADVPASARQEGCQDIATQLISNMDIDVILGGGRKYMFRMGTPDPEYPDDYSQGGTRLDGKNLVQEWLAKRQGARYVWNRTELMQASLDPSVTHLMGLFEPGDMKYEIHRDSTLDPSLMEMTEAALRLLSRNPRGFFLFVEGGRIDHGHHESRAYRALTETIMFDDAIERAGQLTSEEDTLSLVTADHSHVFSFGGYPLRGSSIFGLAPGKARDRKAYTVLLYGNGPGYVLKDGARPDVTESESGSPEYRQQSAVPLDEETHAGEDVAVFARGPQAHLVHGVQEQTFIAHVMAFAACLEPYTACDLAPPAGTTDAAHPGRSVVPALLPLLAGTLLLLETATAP
Hexokinase, sequence (Q38C41 whole entry): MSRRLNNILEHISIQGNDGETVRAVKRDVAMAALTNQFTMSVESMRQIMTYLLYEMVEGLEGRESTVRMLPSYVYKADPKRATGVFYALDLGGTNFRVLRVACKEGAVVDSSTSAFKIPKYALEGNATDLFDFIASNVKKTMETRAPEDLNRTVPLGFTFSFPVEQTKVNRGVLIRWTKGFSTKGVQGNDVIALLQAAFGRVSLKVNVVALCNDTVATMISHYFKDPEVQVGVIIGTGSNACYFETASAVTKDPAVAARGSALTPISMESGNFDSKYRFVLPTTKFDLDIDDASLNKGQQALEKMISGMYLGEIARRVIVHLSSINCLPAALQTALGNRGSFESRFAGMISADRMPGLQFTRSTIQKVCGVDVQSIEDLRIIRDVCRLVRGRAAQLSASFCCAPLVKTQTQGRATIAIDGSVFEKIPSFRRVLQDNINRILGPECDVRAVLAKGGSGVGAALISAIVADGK
Glucose-6-phosphate 1-dehydrogenase, sequence (P11413 whole entry): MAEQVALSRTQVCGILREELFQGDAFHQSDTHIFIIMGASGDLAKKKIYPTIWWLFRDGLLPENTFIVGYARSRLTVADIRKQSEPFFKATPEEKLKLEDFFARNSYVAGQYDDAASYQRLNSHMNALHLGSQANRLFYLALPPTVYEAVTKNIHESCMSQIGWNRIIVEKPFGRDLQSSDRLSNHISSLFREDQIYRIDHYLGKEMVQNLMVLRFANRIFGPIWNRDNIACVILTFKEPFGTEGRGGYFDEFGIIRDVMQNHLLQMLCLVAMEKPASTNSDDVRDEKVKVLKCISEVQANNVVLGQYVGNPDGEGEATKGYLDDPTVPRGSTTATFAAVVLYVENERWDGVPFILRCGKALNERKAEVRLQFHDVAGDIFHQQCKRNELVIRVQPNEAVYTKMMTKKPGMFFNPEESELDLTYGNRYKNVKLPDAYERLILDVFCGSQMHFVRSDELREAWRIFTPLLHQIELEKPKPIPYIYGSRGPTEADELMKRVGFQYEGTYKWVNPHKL
CAAX prenyl protease 2, sequence (Q03530 whole entry): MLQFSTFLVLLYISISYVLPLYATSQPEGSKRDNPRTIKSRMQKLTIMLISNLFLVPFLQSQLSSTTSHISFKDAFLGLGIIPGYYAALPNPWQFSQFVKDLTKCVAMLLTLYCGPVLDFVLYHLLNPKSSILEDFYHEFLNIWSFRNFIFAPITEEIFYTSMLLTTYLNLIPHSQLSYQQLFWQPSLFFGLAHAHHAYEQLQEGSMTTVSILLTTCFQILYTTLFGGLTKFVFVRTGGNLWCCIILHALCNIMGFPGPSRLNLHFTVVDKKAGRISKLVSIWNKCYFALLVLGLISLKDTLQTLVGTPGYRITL
Trypsin, sequence (P00761 whole entry): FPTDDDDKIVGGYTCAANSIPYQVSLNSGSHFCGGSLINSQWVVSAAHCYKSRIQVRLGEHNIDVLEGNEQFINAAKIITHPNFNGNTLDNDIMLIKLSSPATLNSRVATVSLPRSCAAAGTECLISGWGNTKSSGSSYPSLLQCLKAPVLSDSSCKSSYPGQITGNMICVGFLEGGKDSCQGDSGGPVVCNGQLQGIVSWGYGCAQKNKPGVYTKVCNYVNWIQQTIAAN
Large T antigen, sequence (P03070 whole entry): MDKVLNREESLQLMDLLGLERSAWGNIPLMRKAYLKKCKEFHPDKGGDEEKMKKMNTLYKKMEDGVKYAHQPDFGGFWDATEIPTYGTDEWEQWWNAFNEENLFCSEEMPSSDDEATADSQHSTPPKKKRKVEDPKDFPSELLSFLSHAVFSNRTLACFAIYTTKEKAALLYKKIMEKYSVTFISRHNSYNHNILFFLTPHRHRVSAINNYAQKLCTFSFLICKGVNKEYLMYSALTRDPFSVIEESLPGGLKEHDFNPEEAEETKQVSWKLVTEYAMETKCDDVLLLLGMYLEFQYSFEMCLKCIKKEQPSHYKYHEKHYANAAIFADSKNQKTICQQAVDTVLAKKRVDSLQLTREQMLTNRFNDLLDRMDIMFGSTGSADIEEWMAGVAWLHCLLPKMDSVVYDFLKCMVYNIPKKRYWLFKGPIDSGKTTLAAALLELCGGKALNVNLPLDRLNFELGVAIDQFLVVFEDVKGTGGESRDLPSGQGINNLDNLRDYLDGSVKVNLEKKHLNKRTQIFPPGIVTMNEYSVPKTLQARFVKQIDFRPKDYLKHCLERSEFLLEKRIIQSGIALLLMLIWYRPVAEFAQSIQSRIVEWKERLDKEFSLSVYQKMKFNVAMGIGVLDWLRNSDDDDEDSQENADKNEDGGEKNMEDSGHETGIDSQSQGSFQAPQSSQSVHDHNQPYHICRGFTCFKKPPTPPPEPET
X-box-binding protein 1, sequence (P17861 whole entry): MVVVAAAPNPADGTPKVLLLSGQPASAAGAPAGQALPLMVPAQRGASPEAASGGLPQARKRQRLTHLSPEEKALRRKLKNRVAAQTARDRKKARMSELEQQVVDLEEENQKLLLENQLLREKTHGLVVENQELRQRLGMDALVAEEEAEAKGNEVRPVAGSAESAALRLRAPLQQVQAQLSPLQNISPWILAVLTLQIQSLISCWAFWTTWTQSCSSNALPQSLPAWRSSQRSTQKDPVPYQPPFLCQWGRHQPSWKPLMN
Cytochrome P450 2D6, sequence (P10635 whole entry): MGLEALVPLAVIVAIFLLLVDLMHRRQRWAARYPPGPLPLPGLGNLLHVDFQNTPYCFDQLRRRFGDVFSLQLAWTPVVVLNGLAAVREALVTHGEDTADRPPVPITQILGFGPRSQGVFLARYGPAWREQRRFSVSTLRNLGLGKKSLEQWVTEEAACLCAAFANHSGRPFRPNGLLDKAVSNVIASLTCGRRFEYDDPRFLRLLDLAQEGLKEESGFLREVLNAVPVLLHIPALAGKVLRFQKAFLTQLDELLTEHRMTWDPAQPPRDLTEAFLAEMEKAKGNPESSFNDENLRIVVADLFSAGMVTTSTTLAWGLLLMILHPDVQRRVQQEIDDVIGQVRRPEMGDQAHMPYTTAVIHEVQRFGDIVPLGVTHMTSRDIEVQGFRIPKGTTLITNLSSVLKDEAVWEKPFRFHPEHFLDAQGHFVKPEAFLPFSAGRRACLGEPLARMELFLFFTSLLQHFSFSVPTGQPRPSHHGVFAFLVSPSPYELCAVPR

For orientation: IC50 means the concentration that gives 50% inhibition. Regarding `COC(=O)c1ccc(NC(=O)CSc2n[nH]c(-c3ccncc3)n2)cc1`, the IC50 in assay [1] is 17.6 µM (active).

As to `Cn1c2ccccc2c(=O)c2c(=O)n(-c3ccc(F)cc3)c(-c3cccs3)nc21`, the values for the EC50 in assay [2] and in assay [3] were 9.47 µM (active) and 9.21 µM (active), respectively. Further, the IC50 in assay [1] was 2.72 µM (active).

For `O=C(O)c1ccc(-c2ccc(O)c(F)c2)cc1`, the IC50 in assay [4] is 6.76 µM (active). For the same compound, the AC50 in assay [5] is 11.9 µM (active); in [6] it was > 100 µM (inactive).

One may read the CC50 as the concentration giving 50% cytotoxicity. Consider `Nc1c(C(=O)NCc2ccco2)c2nc3ccccc3nc2n1CCc1ccccc1F`, for which the CC50 in assay [7] is 24.3 µM (active). Besides, the 50% inhibitory concentration (IC50) in assay [8] was 13.7 µM (active); in assay [9], 86.3 µM (inactive).

`CC(C)C[C@@H](CC(=O)N[C@@H](CCCN)CC(=O)N[C@@H]1CCNC[C@H]1C(=O)N[C@H](CC(=O)N[C@@H](CCC(=O)O)CC(=O)O)CC(C)C)NC(=O)[C@@H]1CCCC[C@H]1N`: the AC50 in assay [10] was 12.6 µM (inconclusive).

For `COc1cc(OC)cc([C@H](CNc2ncnc3c2ncn3[C@@H]2O[C@@H](CO)[C@H](O)[C@@H]2O)c2ccccc2C)c1`, the AC50 in [11] was 39.8 µM (inconclusive); in [10], 0.0158 µM (inconclusive).

For the compound `N#Cc1ccc2sn(-c3ccccc3)c(=O)c2c1`, the IC50 is 2.97 µM (active) in assay [12] and 14.1 µM (active) in [13]. Further, the EC50 in [14] is > 104 µM (inactive).

Regarding `O=C(NC1(C(F)(F)F)Oc2ccccc2O1)c1ccc(Cl)cc1`, the IC50 in assay [15] and in assay [16] was > 100 µM (inactive) each time.

For `COc1ccc2o/c(=N\O)c(C(=O)Nc3ccccc3OC)cc2c1`, the IC50 in [8] is 59 µM (inactive); in assay [9], 60.5 µM (inactive).

For `CC1(c2ccc(OC(F)F)cc2)NC(=O)N(/N=C/c2c(O)ccc3ccccc23)C1=O` (stereo unspecified), the “Absolute IC50 (XBP1)” value in [17] worked out at 10 µM. The EC50 in assay [18] was > 53 µM (inactive).

For the compound `O=C(N/N=C/C1CC=CCC1)c1cc(Br)ccc1O` (stereo unspecified), the EC50 in assay [19] was > 50 µM (active).

For `COC(=O)c1ccc(Cl)cc1NC(=O)c1ccccc1OC`, the IC50 in assay [12] was > 25 µM (inactive).

`Cc1ccc(-c2nnc(SCC(=O)c3ccc(O)c(O)c3)n2-c2ccc(Cl)cc2)cc1`: the IC50 in assay [15] is 15.3 µM (active); in assay [16], > 100 µM (inactive).
